Legend:
lymphocyte [1] = conditions: by administering 2-ME; cited from earlier work
lymphocytes = conditions: after 3 months, both GSH groups (250 and 1000 mg/day oral), dose dependent
Experimental: The design included the recruitment of healthy subjects (28-79 yr. of age, mean=46.6 years) randomized into 3 groups (GSH at 1000 mg/day, GSH at 250 mg/day, and placebo). […] Blood samples were obtained from all subjects at baseline. Subjects began supplementation according to the following schedule: Glutathione capsules were provided by the sponsor, Kyowa Hakko USA. Capsules were formulated, and subjects began supplementation according to the following schedule as follows: • Group A, GSH: 500 mg/capsule and cellulose: 15 mg/capsule, (2 pills daily); • Group B, GSH: 125 mg/capsule and cellulose: 360 mg/capsule, (2 pills daily); • Group C (placebo), cellulose: 470 mg/capsule, (2 pills daily). […]
(§1) Blood samples were collected from an antecubital vein into 3 tubes containing sodium heparin as an anticoagulant and immediately placed on ice. […] Cell number was assessed after addition of 40 μl trypan blue to 10 μl of cell suspension using a hemocytometer. […]
Lymphocyte Proliferation—Lymphocyte samples from each of the 5 time points (0, 1, 3, 6, and 7 months) were thawed, washed 3 times and counted to determine cell viability. […] Cell proliferation was monitored by 3H-thymidine incorporation. Intracellular radioactivity was measured by liquid scintillation counting and results were expressed as cpm.

human K562 cells = conditions: after 3 months
Experimental: The design included the recruitment of healthy subjects (28-79 yr. of age, mean=46.6 years) randomized into 3 groups (GSH at 1000 mg/day, GSH at 250 mg/day, and placebo). […] Blood samples were obtained from all subjects at baseline. […] Capsules were formulated, and subjects began supplementation according to the following schedule as follows: • Group A, GSH: 500 mg/capsule and cellulose: 15 mg/capsule, (2 pills daily); • Group B, GSH: 125 mg/capsule and cellulose: 360 mg/capsule, (2 pills daily); • Group C (placebo), cellulose: 470 mg/capsule, (2 pills daily).
Eligible participants were randomly assigned to either placebo (Group C) or high (Group A) or low (Group B) dose glutathione groups. […]
as §1
NK Cell Cytotoxicity—NK cell cytotoxicity was assessed using human K562 cells, labeled with sodium ^51chromate as target cell. […] Lymphocyte samples from each of the five time points were thawed, washed 3 times, counted to determine cell viability and added in triplicate to the wells at an effector:target cell ratio of 10:1. After incubation for 4 hr. at 37° C., cells were collected and supernatant analyzed for radioactivity by gamma counting. […]

[2] = test system: murine-derived splenic lymphocytes; conditions: in vitro; cited from earlier work
[3] = test system: murine-derived splenic lymphocytes; conditions: in vitro; cited from earlier work; remark: listed apart in the source
[4] = oral administration to a human; cited from earlier work
lymphocyte [5] = conditions: oral administration to a human; cited from earlier work
NK cell = conditions: oral administration to a human; cited from earlier work

SMILES: OCCS [2-melcaptoethanol]
- lymphocyte proliferation (lymphocyte [1]): lymphocyte proliferation action

SMILES: N[C@@H](CCC(=O)N[C@@H](CS)C(=O)NCC(=O)O)C(=O)O [GSH, γ-L-Glu-L-Cys-Gly]
- glutathione concentration in lymphocytes compared to placebo group (Group C) (Group A, 1000 mg/day oral, 1 and 6 months, chi-square test): significant difference (p<0.05)
- maximum increase of lymphocyte total glutathione (high dose GSH group (1000 mg/day oral), after 6 months): about 30%
- time course of lymphocyte glutathione levels (high dose group (1.0 g/day oral), 1, 3, 6 months): levels progressively increasing from 1 to 3 to 6 months of administration
- mean proliferative capacity of lymphocytes (3H-thymidine, cpm) (lymphocytes): Increases in mean proliferative capacity were observed
- mean % lysis values (NK cell cytotoxicity) (human K562 cells; both GSH groups (250 and 1000 mg/day oral), dose dependent, effector:target 10:1): Increases in mean % lysis values were observed
- significance of increase in % lysis versus baseline (human K562 cells; high GSH dose arm 1000 mg/day, Ppaired=0.01): only significant in the high GSH dose arm
- Con A induced lymphocyte proliferation activity [2]: increased in a GSH concentration dependent fashion
- NK cell cytotoxic activity [3]: increased in a GSH concentration dependent fashion

SMILES: CC(=O)N[C@@H](CS)C(=O)O [N-acetylcysteine]
- glutathione concentration in immune cells [4]: increased
- PHA stimulated lymphocyte proliferation (lymphocyte [5]): increased
- NK cell cytotoxic activity (NK cell): increased

Reference: patent US20150209316A1, “AGENT FOR ENHANCING IMMUNITY CONTAINING GLUTATHIONE” (KYOWA HAKKO BIO CO., LTD., priority 2012, published 2015)
